# Patent US20230174530A1, “N-(PHENYLAMINOCARBONYL) TETRAHYDRO-ISOQUINOLINES AND RELATED COMPOUNDS AS MODULATORS OF GPR65” (PATHIOS THERAPEUTICS LIMITED, priority 2020, published 2023)
# Biological target: T1, human recombinant GPR65 (Homo sapiens, UniProt Q8IYL9)
# T1 construct: host or cells: 1321N1 human astrocytoma cells (1321N1-hrGPR65)
# Test: Human GPR65 cAMP HTRF antagonist assay
# Format: cell-based
# Settings: 1321N1-hrGPR65 cells stimulated at assay pH 7.2; suppression of cAMP rise; read-out: hGPR65 IC50
# Method: Human GPR65 Cyclic Adenosine Monophosphate (cAMP) Homogeneous Time Resolved Fluorescence (HTRF) Antagonist Assay Procedure
# IC50 data was obtained by the following procedure:
# 1321N1 human astrocytoma cells stably expressing human recombinant GPR65 (1321N1-hrGPR65 cells, EuroscreenFast) were cultured according to the vendor's instructions.
# Compounds were tested for their ability to antagonise GPR65, through measuring the concentration of cytoplasmic cAMP following treatment of the cells at a pH of 7.2 to activate GPR65 signalling and addition of the compound to be tested. The extent to which the expected rise in cAMP concentration upon GPR65 activation was suppressed by the added compound is indicative of its potency. The assay was carried out according to EuroscreenFast assay methodology as follows.
# On the day of the assay, test compounds were added to 384-well, low volume, white microtiter plates by acoustic dispensing. KRH buffer (5 mM KCl, 1.25 mM MgSO4, 124 mM NaCl, 25 mM HEPES, 13.3 mM Glucose, 1.25 mM KH2PO4 and 1.45 mM CaCl2) was adjusted to pH 6.5, pH 7.6 and pH 8.4 by adding NaOH. 1321N1-hGPR65 cells were rapidly thawed and diluted in KRH, pH 7.6 prior to centrifugation at 300×g for 5 min and resuspension in assay buffer (KRH, pH 7.6, supplemented with 1 mM 3-isobutyl-1-methylxanthine (IBMX) and 200 μM ethylenediaminetetraacetic acid (EDTA)). Cells were added to assay plates at a density of 2,000 cells per well in a volume of 5 μl. Assay plates were briefly centrifuged at 100×g and then incubated at room temperature for 30 min. Cells were stimulated by the addition of 5 μL KRH, pH 6.5, to achieve an assay pH of 7.2, while control wells received 5 μl KRH, pH 8.4 to achieve an assay pH of 7.9. Assay plates were briefly centrifuged at 100×g and then incubated at room temperature for 30 min.
# Accumulation of cAMP was detected by cAMP HTRF kit (Cisbio). d2-labeled cAMP and cryptate-labeled anti-cAMP antibody in Lysis and Detection Buffer (Cisbio) were added to assay plates, and the plates were incubated at room temperature for 1 h. HTRF measurements were performed using a Pherastar FSX instrument. Acceptor and donor emission signals were measured at 665 nm and 620 nm, respectively, and HTRF ratios were calculated as signal665 nm/signal620 nm×10^4. Data were normalised to high and low control values and fitted with 4-parameter logistic regression to determine hGPR65 IC50 values for the test compounds, which are shown in Table 1.
# T1 sequence (Q8IYL9 whole entry): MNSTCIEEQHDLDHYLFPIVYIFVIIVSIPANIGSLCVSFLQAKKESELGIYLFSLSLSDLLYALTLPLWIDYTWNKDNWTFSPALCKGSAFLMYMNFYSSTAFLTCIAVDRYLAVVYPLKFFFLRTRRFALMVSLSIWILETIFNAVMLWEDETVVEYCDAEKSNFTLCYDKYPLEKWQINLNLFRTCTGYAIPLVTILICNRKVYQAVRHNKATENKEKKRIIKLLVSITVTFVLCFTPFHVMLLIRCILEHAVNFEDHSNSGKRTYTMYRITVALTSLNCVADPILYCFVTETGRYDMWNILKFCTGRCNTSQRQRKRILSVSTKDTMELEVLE
row,SMILES,IC50 [µM]
1,"O=C(Nc1ccc(Cl)cc1)N1CCc2ncncc2C1 [Compound 2, N-(4-Chlorophenyl)-7,8-dihydropyrido[4,3-d]pyrimidine-6(5H)-carboxamide]",> 5
2,"O=C(Nc1ccc(C(F)(F)F)c(Cl)c1)N1CCc2cc[n+]([O-])cc2C1 [Compound 94, 7-((3-Chloro-4-(trifluoromethyl)phenyl)carbamoyl)-5,6,7,8-tetrahydro-2,7-naphthyridine 2-oxide]",> 5
3,"COc1cc2c(cn1)CCN(C(=O)Nc1ccc(Cl)c(Cl)c1)C2 [Compound 105, N-(3,4-Dichlorophenyl)-7-methoxy-3,4-dihydro-2,6-naphthyridine-2(1H)-carboxamide]",> 5
4,"N#Cc1ccc2c(c1)CCN(C(=O)Nc1ccc(Cl)c(Cl)c1)C2 [Compound 37, 6-Cyano-N-(3,4-dichlorophenyl)-3,4-dihydroisoquinoline-2(1H)-carboxamide]",< 0.5
5,"O=C(Nc1cc(Cl)c(Cl)cc1F)N1CCc2cc(=O)[nH]cc2C1 [Compound 112, N-(4,5-Dichloro-2-fluorophenyl)-6-oxo-3,4,6,7-tetrahydro-2,7-naphthyridine-2(1H)-carboxamide]",< 0.5
6,"CS(=O)(=O)c1ccc2c(c1)CCN(C(=O)Nc1ccc(Cl)c(Cl)c1)C2 [Compound 125, N-(3,4-Dichlorophenyl)-6-(methylsulfonyl)-3,4-dihydroisoquinoline-2(1H)-carboxamide]",> 5
7,"O=C(Nc1ccc(C(F)(F)F)c(Cl)c1)N1CCc2cc(F)ccc2C1 [Compound 44, N-(3-Chloro-4-(trifluoromethyl)phenyl)-6-fluoro-3,4-dihydroisoquinoline-2(1H)-carboxamide]",< 0.5
8,"O=C(Nc1ccc(C(F)(F)F)c(Cl)c1)N1CCc2cc(Cl)ccc2C1 [Compound 54, 6-Chloro-N-(3-chloro-4-(trifluoromethyl)phenyl)-3,4-dihydroisoquinoline-2(1H)-carboxamide]",< 0.5
9,"Nc1nccc2c1CCN(C(=O)Nc1ccc(Cl)c(Cl)c1)C2 [Compound 119, 5-Amino-N-(3,4-dichlorophenyl)-3,4-dihydro-2,6-naphthyridine-2(1H)-carboxamide]",> 5
10,"O=C(Nc1ccc(Cl)c(Cl)c1)N1CCc2nonc2C1 [Compound 101, N-(3,4-Dichlorophenyl)-6,7-dihydro-[1,2,5]oxadiazolo[3,4-c]pyridine-5(4H)-carboxamide]",0.5 to 5
11,"N#Cc1ccc2c(c1)CCN(C(=O)Nc1ccc(C(F)(F)F)c(Cl)c1)C2 [Compound 39, N-(3-Chloro-4-(trifluoromethyl)phenyl)-6-cyano-3,4-dihydroisoquinoline-2(1H)-carboxamide]",< 0.5
12,"N#Cc1ccc2c(c1)CN(C(=O)Nc1ccc(C(F)(F)F)c(Cl)c1)CC2 [Compound 51, N-(3-Chloro-4-(trifluoromethyl)phenyl)-7-cyano-3,4-dihydroisoquinoline-2(1H)-carboxamide]",0.5 to 5
13,"O=C(Nc1ccc(Cl)c(Cl)c1F)N1CCc2cc(=O)[nH]cc2C1 [Compound 118, N-(3,4-Dichloro-2-fluorophenyl)-6-oxo-3,4,6,7-tetrahydro-2,7-naphthyridine-2(1H)-carboxamide]",0.5 to 5
14,"O=C(Nc1ccc(C(F)(F)F)c(Cl)c1)N1CCc2c(cccc2C(F)(F)F)C1 [Compound 70, N-(3-Chloro-4-(trifluoromethyl)phenyl)-5-(trifluoromethyl)-3,4-dihydroisoquinoline-2(1H)-carboxamide]",> 5
15,"O=C(Nc1ccc(Cl)c(Cl)c1)N1CCc2cnccc2C1 [Compound 12, N-(3,4-Dichlorophenyl)-3,4-dihydro-2,6-naphthyridine-2(1H)-carboxamide]",0.5 to 5
16,"O=C(Nc1ccc(Cl)c(Cl)c1)N1CCc2cc(F)ncc2C1 [Compound 85, N-(3,4-dichlorophenyl)-6-fluoro-3,4-dihydro-2,7-naphthyridine-2(1H)-carboxamide]",< 0.5
17,"Cc1ccc2c(c1)CCN(C(=O)Nc1ccc(Cl)c(Cl)c1)C2 [Compound 135, N-(3,4-Dichlorophenyl)-6-methyl-3,4-dihydroisoquinoline-2(1H)-carboxamide]",0.5 to 5

# Further lines, results first:
row,IC50 [µM],SMILES
1,> 5,"O=C(Nc1ccc(Cl)c(C(F)(F)F)c1)N1CCc2[nH]c(=O)ccc2C1 [Compound 77, N-(4-Chloro-3-(trifluoromethyl)phenyl)-2-oxo-1,5,7,8-tetrahydro-1,6-naphthyridine-6(2H)-carboxamide]"
2,0.5 to 5,"O=C(Nc1ccc(Cl)c(C(F)(F)F)c1)N1CCc2ccncc2C1 [Compound 16, N-(4-Chloro-3-(trifluoromethyl)phenyl)-3,4-dihydro-2,7-naphthyridine-2(1H)-carboxamide]"
3,> 5,"O=C(Nc1ccc(C(F)(F)F)c(Cl)c1)N1CCc2nccnc2C1 [Compound 24, N-(3-Chloro-4-(trifluoromethyl)phenyl)-7,8-dihydropyrido[3,4-b]pyrazine-6(5H)-carboxamide]"
4,> 5,"O=C(Nc1cccc(Cl)c1)N1CCc2ncncc2C1 [Compound 3, N-(3-Chlorophenyl)-7,8-dihydropyrido[4,3-d]pyrimidine-6(5H)-carboxamide]"
5,0.5 to 5,"COc1cccc2c1CCN(C(=O)Nc1ccc(Cl)c(C(F)(F)F)c1)C2 [Compound 133, N-(4-Chloro-3-(trifluoromethyl)phenyl)-5-methoxy-3,4-dihydroisoquinoline-2(1H)-carboxamide]"
6,0.5 to 5,"N#Cc1ccc2c(c1)CN(C(=O)Nc1ccc(Cl)c(C(F)(F)F)c1)CC2 [Compound 50, N-(4-Chloro-3-(trifluoromethyl)phenyl)-7-cyano-3,4-dihydroisoquinoline-2(1H)-carboxamide]"
7,> 5,"O=C(Nc1ccc(C(F)(F)F)c(Cl)c1)N1CCc2ncccc2C1 [Compound 22, N-(3-Chloro-4-(trifluoromethyl)phenyl)-7,8-dihydro-1,6-naphthyridine-6(5H)-carboxamide]"
8,0.5 to 5,"COc1ccc2c(c1)CCN(C(=O)Nc1ccc(Cl)c(C(F)(F)F)c1)C2 [Compound 66, N-(4-Chloro-3-(trifluoromethyl)phenyl)-6-methoxy-3,4-dihydroisoquinoline-2(1H)-carboxamide]"
9,0.5 to 5,"O=C(Nc1ccc(C(F)(F)F)c(Cl)c1)N1CCc2cccnc2C1 [Compound 19, N-(3-Chloro-4-(trifluoromethyl)phenyl)-5,8-dihydro-1,7-naphthyridine-7(6H)-carboxamide]"
10,> 5,"O=C(Nc1ccc(Cl)c(C(F)(F)F)c1)N1CCc2ncccc2C1 [Compound 21, N-(4-Chloro-3-(trifluoromethyl)phenyl)-7,8-dihydro-1,6-naphthyridine-6(5H)-carboxamide]"
11,0.5 to 5,"O=C(Nc1ccc(C(F)(F)F)c(Cl)c1)N1CCc2cnc(Cl)cc2C1 [Compound 90, 7-Chloro-N-(3-chloro-4-(trifluoromethyl)phenyl)-3,4-dihydro-2,6-naphthyridine-2(1H)-carboxamide]"
12,0.5 to 5,"O=C(Nc1ccc(Cl)c(C(F)(F)F)c1)N1CCc2cncnc2C1 [Compound 7, N-(4-Chloro-3-(trifluoromethyl)phenyl)-5,8-dihydropyrido[3,4-d]pyrimidine-7(6H)-carboxamide]"
13,< 0.5,"Nc1cc2c(cn1)CCN(C(=O)Nc1ccc(C(F)(F)F)c(Cl)c1)C2 [Compound 83, 7-Amino-N-(3-chloro-4-(trifluoromethyl)phenyl)-3,4-dihydro-2,6-naphthyridine-2(1H)-carboxamide]"
14,0.5 to 5,"Cc1cccc2c1CN(C(=O)Nc1ccc(C(F)(F)F)c(Cl)c1)CC2 [Compound 29, N-(3-Chloro-4-(trifluoromethyl)phenyl)-8-methyl-3,4-dihydroisoquinoline-2(1H)-carboxamide]"
15,> 5,"O=C(Nc1ccc(C(F)(F)F)c(Cl)c1)N1CCc2c[nH]c(=O)cc2C1 [Compound 100, N-(3-Chloro-4-(trifluoromethyl)phenyl)-7-oxo-3,4,6,7-tetrahydro-2,6-naphthyridine-2(1H)-carboxamide]"
16,0.5 to 5,"O=C(Nc1ccc(C(F)(F)F)c(Cl)c1)N1CCc2ccccc2C1 [Compound 10, N-(3-Chloro-4-(trifluoromethyl)phenyl)-3,4-dihydroisoquinoline-2(1H)-carboxamide]"
17,0.5 to 5,"O=C(Nc1ccc(Cl)c(C(F)(F)F)c1)N1CCc2cnccc2C1 [Compound 13, N-(4-Chloro-3-(trifluoromethyl)phenyl)-3,4-dihydro-2,6-naphthyridine-2(1H)-carboxamide]"
